Assay results taken from PMC12040169 (PLOS Biology, 2025).

Test: in vitro
Settings: human, hela cells, % viability

| Compound | viability at 28.5 h, 10 µM [%] |
| --- | --- |
| Nc1cc(=O)[nH]c(SCC(=O)Nc2ccc(S(N)(=O)=O)cc2)n1 [CBK265021] | 91.2 |
| Cc1ccc(C(=O)CC(C(=O)O)P(=O)(c2ccccc2)c2ccccc2)cc1 (centres unmarked) [CBK265022] | 90.1 |
| O=C(/C=C/c1ccccc1)N/C(=C/c1ccccc1)C(=O)Nc1ccc2ccccc2c1 [CBK265023] | 89.6 |
| CC(C)c1ccc(/C=C/C(=O)NC(=S)Nc2cccc(C(=O)O)c2)cc1 [CBK265024] | 94.3 |
| CC(=O)CSc1nnc(COc2ccc(C3CCCCC3)cc2)n1-c1ccccc1 [CBK265026] | 116 |
| O=C(/C=C/c1ccc([N+](=O)[O-])cc1)c1ccc(O)c(O)c1 [CBK265028] | 105 |
| COCCN(CCOC)Cc1c(C)nc2c(C)c(C)ccc2c1O [CBK265031] | 102 |
| Cc1oc(C(C)(C)C)cc1C(=O)NCCNc1c(Cl)cccc1[N+](=O)[O-] [CBK265032] | 119 |
| Cn1c(SCc2cccc3ccccc23)nnc1-c1ccc(NC(=O)/C=C/c2ccccc2)cc1 [CBK265034] | 114 |
| CC(C)CC12CN3CCN(CC(C3)/C1=N\N=C1/C3CN4CCN(C3)CC1(CC(C)C)C4)C2 [CBK265036] | 99.1 |
| Cn1c(Cc2ccccc2)nnc1Sc1ccc(C(=O)O)cc1[N+](=O)[O-] [CBK265038] | 99.6 |
| COc1ccccc1CN(CN1C(=O)c2ccccc2C1=O)CN1C(=O)c2ccccc2C1=O [CBK265039] | 94.9 |
| CC(C)Nc1nc(NC(C)C)nc(Oc2ccc(C=O)cc2)n1 [CBK265043] | 111 |
| O=C(NC(=S)Nc1ccccc1C(=O)O)c1ccc(Cl)cc1 [CBK265044] | 96.2 |
| O=C(CN1CCOCC1)Nc1ccc(NC(=O)CN2CCOCC2)cc1 [CBK265045] | 95.9 |
| CCN(CC)CCNc1cc(C)nc2c1C(=O)C(=O)C=C2N1CCCCC1 [CBK265049] | 89.5 |
| CC1CCc2c(sc3ncnc(SC(C)C(=O)OC4CCCCC4)c23)C1 (centres unmarked) [CBK265050] | 104 |
| O=C(O)c1cccc(NC(=S)NC(=O)C(c2ccccc2)c2ccccc2)c1 [CBK265053] | 107 |
| NCCNCCCCOc1ccc(Cl)c(Cl)c1 [CBK265059] | 109 |
| O=C(CN1CCCC1)Nc1sc2c(c1C(=O)Nc1ccc(Br)cc1)CCC2 [CBK265060] | 94.8 |
| COc1ccc(NC(=O)c2c(NC(=O)CN3CCCC(C)C3)sc3c2CCC3)cc1 (centres unmarked) [CBK265061] | 93.3 |
| C=CCOc1ccc(-c2nn(-c3ccccc3)cc2/C=C2/SC(=S)N(CC(=O)O)C2=O)c(C)c1 [CBK265062] | 95.8 |
| COc1cccc(C(=O)NC(=S)Nc2ccc(C(=O)O)c(Cl)c2)c1 [CBK265065] | 103 |
| Cc1cc(Cl)c(OCCNCCO)c(Br)c1 [CBK265066G] | 122 |
| Cc1cccc(OCC(=O)NC(=S)Nc2cccc(C(=O)O)c2C)c1 [CBK265067] | 96.3 |
| Cc1ccc(C(=O)NC(=S)Nc2ccc(C(=O)O)c(Cl)c2)cc1Cl [CBK265068] | 95 |
| COc1cc(/C=C2\N=C(c3cc(Cl)ccc3OC)OC2=O)ccc1OC(=O)c1ccccc1 [CBK265069] | 104 |

| Compound | viability at 28.5 h, 10 µM [%] |
| --- | --- |
| Cc1c(NC(=S)NC(=O)COc2ccc(Cl)cc2)cccc1C(=O)O [CBK265070] | 103 |
| Cc1cc(Br)c2c(c1)C(O)(N1CCCCC1C)C(=O)N2 (centres unmarked) [CBK265071] | 97.9 |
| O=C(CN1CCOCC1)Nc1sc2c(c1C(=O)Nc1ccc(Br)cc1)CCC2 [CBK265073] | 111 |
| COc1ccc(C(=O)O)cc1NC(=S)NC(=O)c1ccc(-c2cc(Cl)ccc2Cl)o1 [CBK265074] | 104 |
| CN1CCN(CCCOc2ccc(OCc3ccccc3)cc2)CC1 [CBK265077] | 98.2 |
| Cc1cc(Cl)c(OCCNCCN)c(Br)c1 [CBK265079] | 91.5 |
| CCCSc1nnc(-c2ccccc2NC(=O)CC)c(O)n1 [CBK265081] | 92.8 |
| Cc1cc(OCC(=O)NCCCN2CCOCC2)cc(C)c1Br [CBK265082] | 99.9 |
| Cc1cccc(C(C)(C)C)c1OCCn1ccnc1 [CBK265084] | 109 |
| COc1cccc(OC)c1OCCN1CCNCC1 [CBK265089G] | 90.7 |
| Nn1c(SCC(=O)Nc2ccc3c(c2)oc2ccccc23)nnc1-c1ccc(Cl)cc1Cl [CBK265090] | 91.7 |
| Cc1cccc(C(C)(C)C)c1OCCCCNCCN [CBK265092G] | 110 |
| Cc1cc(OCC(=O)Nc2ccccc2CO)cc(C)c1Br [CBK265094] | 88.2 |
| Cc1ccc(OCCCCNCCN)c(Br)c1 [CBK265099G] | 85.1 |
| Cc1ccccc1N1C(=O)/C(=C/c2cn(Cc3ccccc3[N+](=O)[O-])c3ccccc23)SC1=S [CBK265101] | 101 |
| N/C(=N\OC(=O)c1cc(-c2ccccc2)nc2ccccc12)c1cccnc1 [CBK265106] | 101 |
| COc1ccc(-c2nn(-c3ccccc3)cc2/C=C2/SC(=S)N(Cc3ccccc3)C2=O)c(C)c1 [CBK265107] | 93.7 |
| COc1cc(NC(=O)CN2C(=O)c3ccc([N+](=O)[O-])cc3C2=O)c(C(=O)O)cc1OC [CBK265109] | 97.7 |
| CCCC(=O)Nc1ccc(C(=O)Nc2ccccc2C(=O)O)cc1 [CBK265111] | 121 |
| O=C(CN1C(=O)C2C3C=CC(C3)C2C1=O)OCC(=O)c1ccccc1 (centres unmarked) [CBK265112] | 100 |
| O=C(CCN1C(=O)C2C3CCC(C3)C2C1=O)OCC(=O)c1ccc(-c2ccccc2)cc1 (centres unmarked) [CBK265113] | 95.1 |
| CCOC(=O)C(C)N1C(=O)S/C(=C/c2ccc(Oc3ccc([N+](=O)[O-])cn3)cc2)C1=O (centres unmarked) [CBK265114] | 93.9 |
| O=C(CN1C(=O)C2C3C=CC(C3)C2C1=O)NCc1ccco1 (centres unmarked) [CBK265116] | 96.4 |
| COc1ccc(NC(=O)Nc2ccc3nc(C)c(C)nc3c2)cc1 [CBK265120] | 97.4 |
| O=[N+]([O-])c1cc(CN2CCCCC2)c2cccnc2c1O [CBK265121] | 86.3 |
| CCn1cc(C(=O)O)c(=O)c2cc(F)c(N3CCN(S(=O)(=O)c4ccc(C)cc4)CC3)cc21 [CBK265122] | 95.1 |
| O=C(O)c1ccc(COc2ccc3ccccc3c2/C=C2/NC(=O)N(c3ccccc3)C2=O)cc1 [CBK265124] | 101 |

| Compound | viability at 28.5 h, 10 µM [%] |
| --- | --- |
| COC(=O)C1=C(C)N(c2cccc(C(F)(F)F)c2)C(=O)/C1=C\c1ccc(C(=O)O)cc1 [CBK265129] | 92.8 |
| O=C(CSc1nnc(COc2ccccc2)n1-c1ccccc1)c1cccs1 [CBK265133] | 99.3 |
| Cc1n[nH]c(O)c1C(c1ccc(OC(=O)c2c(F)cccc2F)cc1)c1c(C)n[nH]c1O [CBK265136] | 101 |
| COc1cc([N+](=O)[O-])ccc1NC(=O)CCN1C(=O)C2C3CCC(C3)C2C1=O (centres unmarked) [CBK265141] | 99.3 |
| COc1cccc(C(=O)COC(=O)c2cc(-c3ccccc3)nc3ccc(Br)cc23)c1 [CBK265143] | 94.4 |
| COCCNC(=O)Nc1ccc2nc(-c3ccccn3)c(-c3ccccn3)nc2c1 [CBK265151] | 89.9 |
| COc1cc2c(cc1NC(=O)CSc1nc3ccccc3[nH]1)oc1ccccc12 [CBK265153] | 100 |
| COc1cc2c(cc1NC(=O)CSc1nc3ccccc3o1)oc1ccccc12 [CBK265154] | 105 |
| CN(C)S(=O)(=O)N1CCN(c2ccc([N+](=O)[O-])c(NC3CC3)c2)CC1 [CBK265158] | 87 |
| COc1ccc(Cl)cc1NC(=O)CN(C1CCCCC1)S(=O)(=O)c1ccccc1 [CBK265159] | 108 |
| CCOc1cc(/C=C2/NC(=O)N(c3ccccc3)C2=O)cc(Cl)c1OCc1cccc(C(=O)O)c1 [CBK265160] | 92 |
| O=C(NCCO)/C(=C\c1ccccc1)NC(=O)c1ccc(I)cc1 [CBK265162] | 89.2 |
| C=CCOc1ccc(C(=O)C2=C(O)C(=O)N(Cc3cccnc3)C2c2cccnc2)cc1 (centres unmarked) [CBK265167] | 98 |
| O=C(COC(=O)c1ccncc1)c1ccc(OC(=O)c2ccccc2)cc1 [CBK265169] | 87.3 |
| C/C(=C1/SC(=S)N(CCC(=O)O)C1=O)c1ccc(O)cc1 [CBK265171] | 102 |
| O=C(Nc1ccccc1C(=O)O)c1ccc(S(=O)(=O)N2CCCCC2)cc1 [CBK265174] | 103 |
| O=C(Nc1ccccc1[N+](=O)[O-])c1ccc(Cl)c(S(=O)(=O)N2CCC(C(=O)O)CC2)c1 [CBK265180] | 101 |
| O=C(O)c1ccc(NC(=O)C2CCN(S(=O)(=O)c3ccccc3)CC2)cc1 [CBK265181] | 110 |
| O=C(c1ccccc1)c1ccc(NC(=O)c2ccccc2F)c(NC(=O)c2ccccc2F)c1 [CBK265183] | 93.2 |
| O=C(O)c1ccc(NS(=O)(=O)c2ccc(NC(=O)c3ccccc3Cl)cc2)cc1 [CBK265184] | 93 |
| O=C(O)c1cccc(NC(=O)c2cccc(S(=O)(=O)N3CCc4ccccc4C3)c2)c1 [CBK265187] | 108 |
| O=C(OCc1ccc(Cl)cc1)c1ccc2c(c1)C(=O)N(c1cccc([N+](=O)[O-])c1)C2=O [CBK265188] | 109 |
| Cc1ccc(C(=O)Nc2cccc3cccnc23)cc1Br [CBK265189] | 102 |
| COc1ccccc1-c1coc2cc(OC(=O)c3c(C)oc4ccc(OC(C)=O)cc34)ccc2c1=O [CBK265191] | 92 |
| O=C(O)C1N(Cc2ccccc2)CCCN1Cc1ccccc1 [CBK265196] | 111 |

Same assay, conditions: human, hela cells, % viability, bulk resorufin, single well

| Compound | viability at 28.5 h, 10 µM [%] |
| --- | --- |
| O=C1NC(=S)N(c2ccccc2F)C(=O)/C1=C/NCc1ccco1 [CBK265126] | 86.6 |
| CCOC(=O)C1CCN(/C=C2/C(=O)NC(=S)N(c3ccccc3F)C2=O)CC1 [CBK265142] | 102 |
| O=C1NC(=O)C(=Cc2cccc(OC(F)(F)C(F)F)c2)C(=O)N1 [CBK265150] | 108 |
| O=C(Cn1cc(/C=C2\C(=O)NC(=S)N(c3cccc(F)c3)C2=O)c2ccccc21)Nc1ccccc1 [CBK265152] | 106 |
